The source of these data is patent publication US11364248B2 (AMGEN INC., priority 2017, dated 2022).

Molecules are shown by their SMILES. pIC50: −log10 of the molar value. Like-named read-outs stand apart in the source and are kept apart here.

One assay addresses Mcl-1/Bim interaction (Homo sapiens (Human), UniProt Q07820). The assay is described as follows: Cell Free Mcl-1: Bim Affinity Assay (Mcl-1 HTRF). The class given is binding. The settings on record: TR-FRET, recombinant human Mcl-1(171-327), biotin-Bim(51-76); read-out: Mel-1 HTRF IC50. The method in brief:
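IC50 values came from duplicate four-parameter fits of the 665/620 nm TR-FRET ratio, read after overnight incubation with Eu anti-6×His and streptavidin-Xlent detection reagents. Beforehand, serially diluted compounds sat 60 min with Mcl-1 residues 171-327 (0.1 nM) and biotinylated Bim 51-76 peptide (0.05 nM), pH 7.5 Hepes/NaCl/DTT buffer.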
In general terms: Time-resolved FRET reads energy transfer from a long-lived donor to a nearby acceptor.

A further assay concerns OPM-2. The experiment in a line: Cell Viability Assay (OPM-2 10 FBS). The class given is cell-based, human. The settings on record: OPM-2 cells, CellTiter-Glo, read-out: OPM-2 10% FBS IC50 IP. The method in brief: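 Compounds, serially diluted, were left on OPM-2 cells (3000 cells/well, 10% FBS RPMI 1640) for 16 h at 37° C. under 5% CO2.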
Background: In ATP-based viability assays light output follows the ATP content of the culture.

Sequence of Mcl-1/Bim interaction (Q07820 171-327): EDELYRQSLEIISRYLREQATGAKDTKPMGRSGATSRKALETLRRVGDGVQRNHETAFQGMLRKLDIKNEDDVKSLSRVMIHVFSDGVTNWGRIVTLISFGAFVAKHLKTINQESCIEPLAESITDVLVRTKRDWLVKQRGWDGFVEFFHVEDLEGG

As to `C[C@@H]1[C@@H](C)CCC[C@@H]([C@H]2OC[C@@H](N3CC(F)C3)CO2)[C@@H]2CC[C@H]2CN2C[C@@]3(CCCc4cc(Cl)ccc43)COc3ccc(cc32)C(=O)NS1(=O)=O` (single isomer, unassigned) [Example 51], the pIC50 is 9.12 at Mcl-1/Bim interaction and 6.00 with OPM-2 (16 h).

In the case of `CC[C@@H]1CCCC[C@H]([C@H]2OC[C@@H](N(C)C)CO2)C2CC[C@H]2CN2C[C@@]3(CCCc4cc(Cl)ccc43)COc3ccc(cc32)C(=O)NS1(=O)=O` (stereo in doubt) [Example 74, (1S,3′R,6′S,7′S,12′R)-6-chloro-7′-(cis-5-(dimethylamino)-1,3-dioxan-2-yl)-12′-ethyl-3,4-dihydro-2H,15′H-spiro[naphthalene-1,22′-[20]oxa[13]thia[1,14]diazatetracyclo [14.7.2.0~3,6~.0~19,24~]pentacosa[16,18,24]trien]-15′-one 13′,13′-dioxide], the pIC50 on Mcl-1/Bim interaction was 9.71; with OPM-2 (16 h) it was 6.97.

Consider `CCN(CC)[C@H]1CO[C@H]([C@H]2CCC[C@H](C)[C@@H](C)S(=O)(=O)NC(=O)c3ccc4c(c3)N(C[C@@H]3CC[C@H]32)C[C@@]2(CCCc3cc(Cl)ccc32)CO4)OC1` [Example 28, (1S,3′R,6′R,7′S,11′S,12′R)-6-chloro-7′-(trans-5-(diethylamino)-1,3-dioxan-2-yl)-11′,12′-dimethyl-3,4-dihydro-2H,15′H-spiro[naphthalene-1,22′-[20]oxa[13]thia[1,14]diazatetracyclo [14.7.2.0~3,6~.0~19,24~]pentacosa[16,18,24]trien]-15′-one 13′,13′-dioxide], for which the pIC50 on Mcl-1/Bim interaction is 9.32; in the assay on OPM-2 (Homo sapiens, OPM-2, 16 h), 6.39.

On to `CCN(C)[C@H]1CO[C@@H]([C@H]2CCC[C@H](C)[C@@H](C)S(=O)(=O)NC(=O)c3ccc4c(c3)N(C[C@@H]3CC[C@H]32)C[C@@]2(CCCc3cc(Cl)ccc32)CO4)OC1` (relative stereo) [Example 46], for which the pIC50 on Mcl-1/Bim interaction was 9.47; in the assay with OPM-2 (16 h), 7.33.

With `COC[C@H]1[C@@H](C)CCC[C@H]([C@H]2OC[C@@H](N(C)C)CO2)[C@@H]2CC[C@H]2CN2C[C@@]3(CCCc4cc(Cl)ccc43)COc3ccc(cc32)C(=O)NS1(=O)=O` [Example 88, (1S,3′R,6′R,7′S,11′S,12′R)-6-chloro-7′-(cis-5-(dimethylamino)-1,3-dioxan-2-yl)-12′-(methoxymethyl)-11′-methyl-3,4-dihydro-2H,15′H-spiro[naphthalene-1,22′-[20]oxa[13]thia[1,14]diazatetracyclo [14.7.2.0~3,6~.0~19,24~]pentacosa[16,18,24]trien]-15′-one 13′,13′-dioxide], the pIC50 on Mcl-1/Bim interaction was 8.36; with OPM-2 (16 h) it was 6.47.

As for `C[C@@H]1[C@@H](C)CCC[C@H]([C@H]2OC[C@H](N)CO2)[C@@H]2CC[C@H]2CN2C[C@@]3(CCCc4cc(Cl)ccc43)COc3ccc(cc32)C(=O)NS1(=O)=O` (relative stereo) [Example 17], the pIC50 at Mcl-1/Bim interaction was 9.19; in the assay with OPM-2 (16 h), 6.71.

For `C[C@@H]1[C@@H](C)CCC[C@@H]([C@H]2OC[C@@H](CN(C)C)O2)[C@@H]2CC[C@H]2CN2C[C@@]3(CCCc4cc(Cl)ccc43)COc3ccc(cc32)C(=O)NS1(=O)=O` (single isomer, unassigned) [Example 30], the pIC50 was 8.29 on Mcl-1/Bim interaction and 5.61 with OPM-2 (16 h).

Regarding `C[C@@H]1[C@@H](C)CCC[C@H]([C@H]2OC[C@@H](N(C)C3CC3)CO2)[C@@H]2CC[C@H]2CN2C[C@@]3(CCCc4cc(Cl)ccc43)COc3ccc(cc32)C(=O)NS1(=O)=O` [Example 69, (1S,3′R,6′R,7′S,11′S,12′R)-6-chloro-7′-(cis-5-(cyclopropyl(methyl)amino)-1,3-dioxan-2-yl)-11′,12′-dimethyl-3,4-dihydro-2H,15′H-spiro[naphthalene-1,22′-[20]oxa[13]thia[1,14]diazatetracyclo [14.7.2.0~3,6~.0~19,24~]pentacosa[16,18,24]trien]-15′-one 13′,13′-dioxide], the results for the pIC50 at Mcl-1/Bim interaction and in the assay on OPM-2 (16 h) were 9.27 and 6.38, respectively.

On to `C[C@H]1CCC[C@H]([C@H]2OC[C@@H](N(C)C)CO2)[C@@H]2CC[C@H]2CN2C[C@@]3(CCCc4cc(Cl)ccc43)COc3ccc(cc32)C(=O)NS(=O)(=O)C1` (stereo in doubt) [Example 78], for which the results for the pIC50 at Mcl-1/Bim interaction and in the assay on OPM-2 (16 h) were 8.55 and 6.22, respectively.

Regarding `C[C@@H]1[C@@H](C)CCC[C@H](C2OCCO2)[C@@H]2CC[C@H]2CN2C[C@@]3(CCCc4cc(Cl)ccc43)COc3ccc(cc32)C(=O)NS1(=O)=O` [Example 3, (1S,3′R,6′R,7′S,11′S,12′R)-6-chloro-7′-(1,3-dioxolan-2-yl)-11′,12′-dimethyl-3,4-dihydro-2H,15′H-spiro[naphthalene-1,22′-[20]oxa[13]thia[1,14]diazatetracyclo [14.7.2.0~3,6~.0~19,24~]pentacosa[16,18,24]trien]-15′-one 13′,13′-dioxide], the figures for the pIC50 on Mcl-1/Bim interaction and in the assay with OPM-2 (16 h) were 8.89 and 6.03, respectively.

Turning to `C[C@@H]1[C@@H](C)C/C=C/[C@@H]([C@H]2OC[C@H](N(C)C)CO2)[C@@H]2CC[C@H]2CN2C[C@@]3(CCCc4cc(Cl)ccc43)COc3ccc(cc32)C(=O)NS1(=O)=O` (relative stereo) [Example 96], the results for the pIC50 on Mcl-1/Bim interaction and with OPM-2 (16 h) were 9.34 and 6.50, respectively.

In the case of `CC(=O)N1C[C@@H]2O[C@@H]([C@H]3CCC[C@H](C)[C@@H](C)S(=O)(=O)NC(=O)c4ccc5c(c4)N(C[C@@H]4CC[C@H]43)C[C@@]3(CCCc4cc(Cl)ccc43)CO5)O[C@@H]2C1` [Example 38, (1S,3′R,6′R,7′S,11′S,12′R)-7′-((2r,3aR,6aS)-5-acetyltetrahydro-3aH-[1,3]dioxolo[4,5-c]pyrrol-2-yl)-6-chloro-11′,12′-dimethyl-3,4-dihydro-2H,15′H-spiro[naphthalene-1,22′-[20]oxa[13]thia[1,14]diazatetracyclo [14.7.2.0~3,6~.0~19,24~]pentacosa[16,18,24]trien]-15′-one 13′,13′-dioxide], the pIC50 on Mcl-1/Bim interaction was 9.27; in the assay with OPM-2 (16 h) it was 6.09.

For the molecule `CO[C@H]1CO[C@@H]([C@@H]2CCC[C@H](C)[C@@H](C)S(=O)(=O)NC(=O)c3ccc4c(c3)N(C[C@@H]3CC[C@H]32)C[C@@]2(CCCc3cc(Cl)ccc32)CO4)OC1` (single isomer, unassigned) [Example 25], the pIC50 at Mcl-1/Bim interaction is 9.33; with OPM-2 (16 h), 6.04.

With `CCN[C@H]1CO[C@H]([C@H]2CCC[C@H](C)[C@@H](C)S(=O)(=O)NC(=O)c3ccc4c(c3)N(C[C@@H]3CC[C@H]32)C[C@@]2(CCCc3cc(Cl)ccc32)CO4)OC1` [Example 27, (1S,3′R,6′R,7′S,11′S,12′R)-6-chloro-7′-(trans-5-(ethylamino)-1,3-dioxan-2-yl)-11′,12′-dimethyl-3,4-dihydro-2H,15′H-spiro[naphthalene-1,22′-[20]oxa[13]thia[1,14]diazatetracyclo [14.7.2.0~3,6~.0~19,24~]pentacosa[16,18,24]trien]-15′-one 13′,13′-dioxide], the pIC50 on Mcl-1/Bim interaction was 9.43; in the assay with OPM-2 (Homo sapiens, OPM-2, 16 h), 6.81.

With `C[C@@H]1[C@@H](C)CCC[C@@H]([C@H]2OC[C@@H](N3CC(F)C3)CO2)[C@@H]2CC[C@H]2CN2C[C@@]3(CCCc4cc(Cl)ccc43)COc3ccc(cc32)C(=O)NS1(=O)=O` (single isomer, unassigned) [Example 50], the pIC50 was 9.31 at Mcl-1/Bim interaction and 6.90 in the assay on OPM-2 (16 h).

Turning to `C[C@@H]1[C@@H](C)CCC[C@H]([C@H]2O[C@H]3CN(C)C[C@H]3O2)[C@@H]2CC[C@H]2CN2C[C@@]3(CCCc4cc(Cl)ccc43)COc3ccc(cc32)C(=O)NS1(=O)=O` (stereo in doubt) [Example 24, (1S,3′R,6′R,7′R,11′S,12′R)-6-chloro-11′,12′-dimethyl-7′-((2r,3aR,6aS)-5-methyltetrahydro-3aH-[1,3]dioxolo[4,5-c]pyrrol-2-yl)-3,4-dihydro-2H,15′H-spiro[naphthalene-1,22′-[20]oxa[13]thia[1,14]diazatetracyclo [14.7.2.0~3,6~.0~19,24~]pentacosa[16,18,24]trien]-15′-one 13′,13′-dioxide], the pIC50 is 9.15 on Mcl-1/Bim interaction and 6.27 in the assay on OPM-2 (Homo sapiens, OPM-2, 16 h).

As for `C[C@@H]1[C@@H](C)CCC[C@H]([C@H]2OC[C@](N)(CO)CO2)[C@@H]2CC[C@H]2CN2C[C@@]3(CCCc4cc(Cl)ccc43)COc3ccc(cc32)C(=O)NS1(=O)=O` [Example 79, (1S,3′R,6′R,7′S,11′S,12′R)-7′-(cis-5-amino-5-(hydroxymethyl)-1,3-dioxan-2-yl)-6-chloro-11′,12′-dimethyl-3,4-dihydro-2H,15′H-spiro[naphthalene-1,22′-[20]oxa[13]thia[1,14]diazatetracyclo [14.7.2.0~3,6~.0~19,24~]pentacosa[16,18,24]trien]-15′-one 13′,13′-dioxide], the pIC50 at Mcl-1/Bim interaction is 9.15; in the assay with OPM-2 (16 h), 6.08.

For the molecule `C[C@@H]1[C@@H](C)CCC[C@@H]([C@H]2OC[C@H](N(C)C)CO2)[C@@H]2CC[C@H]2CN2C[C@@]3(CCCc4cc(Cl)ccc43)COc3ccc(cc32)C(=O)NS1(=O)=O` (relative stereo) [Example 6, (1S,3′R,6′R,7′R,11′S,12′R)-6-CHLORO-7′-(TRANS-5-(DIMETHYLAMINO)-1,3-DIOXAN-2-YL)-11′,12′-DIMETHYL-3,4-DIHYDRO-2H,15′H-SPIRO[NAPHTHALENE-1,22′-[20]OXA[13]THIA[1,14]DIAZATETRACYCLO[14.7.2.0˜3,6˜.0˜19,24˜]PENTACOSA[16,18,24]TRIEN]-15′-ONE 13′,13′-DIOXIDE], the pIC50 was 8.68 at Mcl-1/Bim interaction and 6.25 with OPM-2 (Homo sapiens, OPM-2, 16 h).

By pIC50 is commonly meant the negative decadic logarithm of the IC50, by convention in mol/L.
